Results published in publication PMC7695371, “Mimetics of extra virgin olive oil phenols with anti-cancer stem cell activity” (Aging (Albany NY), 2020).

Key:
[1] = target: FRAP1 (mTOR) (Homo sapiens, UniProt P42345); test: FRET-based Z-LYTE kinase assay, […] concentrations; type: biochemical
[2] = target: T1, DNMT3A (Homo sapiens, UniProt Q9Y6K1); test: HotSpot radioisotope filter-binding methyltransferase assay, 10-dose; type: biochemical
T1 construct: recombinant, Reaction Biology Corp. HotSpot assay
T1 sequence (Q9Y6K1 whole entry, looked up): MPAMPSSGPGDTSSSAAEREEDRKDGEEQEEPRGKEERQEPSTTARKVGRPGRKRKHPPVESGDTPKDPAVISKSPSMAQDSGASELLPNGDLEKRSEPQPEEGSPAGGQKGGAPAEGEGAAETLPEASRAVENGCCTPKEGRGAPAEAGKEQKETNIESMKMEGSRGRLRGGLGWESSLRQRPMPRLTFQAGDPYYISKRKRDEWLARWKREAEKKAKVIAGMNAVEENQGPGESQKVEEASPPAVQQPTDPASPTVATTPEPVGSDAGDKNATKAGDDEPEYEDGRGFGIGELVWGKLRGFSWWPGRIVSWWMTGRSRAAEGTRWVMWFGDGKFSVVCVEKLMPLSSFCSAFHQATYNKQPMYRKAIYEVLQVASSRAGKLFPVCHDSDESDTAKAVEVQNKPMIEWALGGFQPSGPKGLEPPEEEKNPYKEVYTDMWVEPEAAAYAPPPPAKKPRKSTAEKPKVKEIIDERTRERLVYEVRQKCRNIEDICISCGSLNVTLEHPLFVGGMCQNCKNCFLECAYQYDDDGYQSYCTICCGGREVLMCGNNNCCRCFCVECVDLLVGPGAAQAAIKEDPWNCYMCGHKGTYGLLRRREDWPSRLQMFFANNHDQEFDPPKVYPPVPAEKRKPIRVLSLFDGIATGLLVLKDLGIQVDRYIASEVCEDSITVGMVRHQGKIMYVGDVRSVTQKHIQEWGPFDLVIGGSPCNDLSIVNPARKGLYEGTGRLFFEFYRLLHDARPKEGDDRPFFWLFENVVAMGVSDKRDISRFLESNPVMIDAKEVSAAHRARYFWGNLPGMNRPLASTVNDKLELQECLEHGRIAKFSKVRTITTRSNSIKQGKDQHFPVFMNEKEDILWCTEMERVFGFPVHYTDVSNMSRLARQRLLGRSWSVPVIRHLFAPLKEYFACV

IC50 [1]: ~39 µM
IC50 [2]: > 150 µM
SMILES: CCCC(=O)OCCc1ccc(O)c(O)c1 [CHEMBL1950046, 3,4-Dihydroxyphenethyl butyrate]
